Data: US20240156920A1, “COMPOSITIONS COMPRISING HYALURONIDASE AND/OR COLLAGENASE AND/OR 4-METHYLUMBELLIFERONE (4-MU) AND METHODS OF TREATMENT USING SAME” (STANDARD OF CARE CORPORATION, priority 2019, published 2024)

What was measured:
[1] = test system: patient with peri-orbital puffiness due to edema; experiment: Treatment of peri-orbital puffiness due to peri-orbital edema using 4-MU (Example 5); type: in vivo, human
Experimental: A patient with peri-orbital puffiness due to edema (edema not due to a hyaluronic acid filler) of the peri-orbital soft tissues or edema of the eyelid fat pads was treated with a composition comprising 25 mg/mL 4-methylumbelliferone (4-MU). Briefly, four injections were administered in the peri-orbital soft tissues and edematous orbital fat pads. The injections were performed using a 0.5 ml syringe having a 32-gauge needle inserted parallel to the globe, angling away from the globe, to avoid injury to the globe. An improvement in the extent of peri-orbital puffiness due to peri-orbital edema was observed within the first 15-60 minutes after the injections. […] Although there was recurrence of some of the edema, there was an improvement up to 3 months.

[2] = test system: Demyelinated neurons; experiment: Treatment of demyelinated neurons in culture, microscopy (Example 9); type: cell-based; settings: 10 U/mL; after 14 days; 24-well plate
Experimental: Demyelinated neurons were grown to confluence in culture and then transferred to a 24-well cell culture plate (Sigma) in a volume of 2 mL. 10 U/mL of Hylenex was added to each well.

[3] = test system: patients with scleroderma on their arms; experiment: Treatment of fibrosis (scleroderma on arms), severity grade (Example 8); type: in vivo, human; settings: five patients; average prior to treatment moderate; five injection points in a 10×10 cm area; followed one day to six months
Experimental: Five patients with scleroderma on their arms were treated with Hylenex and the change in severity of their fibrosis was measured after treatment. Briefly, the severity of scleroderma on a target area of on each patient was first graded using as either severe, moderate, mild, or none. Overall scores for patients' arms prior to treatment averaged as moderate.
Next, Hylenex was injected at five different points into a 10×10 cm area of scleroderma on the patient's arm. The injections were performed using a 0.5 ml syringe having a 32-gauge needle. All patients were followed post injection, at one day, one week, one, three, and six months.

[4] = test system: patients with inflammation due to stasis dermatitis; experiment: Treatment of inflammation due to stasis dermatitis, severity grade (Example 6); type: in vivo, human; set-up: key: 4 (severe); 3 (moderate); 2 (mild); 1 (quiescent); 0 (normal); settings: one week after treatment, 500 units at five points on the ankle
Experimental: Patients with inflammation due to stasis dermatitis (Patient A, B, and C) on their lower legs were treated with Hylenex and the change in severity of their inflammation was measured after treatment.
Briefly, the severity of inflammation on a target area of each patient's ankle was first graded on the following scale: 4 (severe), 3 (moderate), 2 (mild), 1 (quiescent), or 0 (normal). Patient A scored a 4 prior to treatment, Patient B scored a 3 prior to treatment, and Patient C scored a 3 prior to treatment.
Next, 500 units of hylenex was injected at five different points into an area on each patient's ankle. The injections were performed using a 0.5 ml syringe having a 32-gauge needle. All patients were followed post injection, at one day and one week. Patient A's inflammation was classified as a 2 one week after treatment, Patient B's inflammation was classified as a 2 one week after treatment, and Patient C's inflammation was classified as a 2 one week after treatment.

[5] = test system: patients with peri-orbital puffiness due to edema of the eyelid fat pads; experiment: Treatment of peri-orbital puffiness due to peri-orbital edema using HYLENEX, PEFAS and Subjective Patient Score (Example 12); type: in vivo, human
Text: The Peri-orbital and Eyelid Fullness Assessment Scale (PEFAS or Sweis-Scale) defines the etiology of the upper and/or lower eyelid fullness to determine the best and safest course of treatment. It determines whether the fullness is secondary to pseudoherniation of the upper and/or lower eyelid fat pads, secondary to edema of the eyelid soft tissues, secondary to edema of the fat pads, or secondary to a combination of pseudoherniation of the fat pads with edema of the fat pads, and/or edema of the peri-orbital soft tissues. The PEFAS score is represented as the findings in the right upper eyelid/the findings in the lower eyelid and the findings in the left upper eyelid/the findings in the lower eyelid.
Four patients (Patients A-D) with peri-orbital puffiness due to edema (as identified in Example 1) of the eyelid fat pads were scored as a Grade 1E, 2E, 3E, or 3+E on the Peri-orbital Fullness Assessment Scale. A score was given to the upper and lower eyelids in the patient's left and right eye. Patient A's eyes were scored on the PEFAS scale as a L 0/3E (left eye; upper eyelid over lower eyelid) and a R 0/3E (right eye; upper eyelid over lower eyelid). Patient B was scored as a L 2E/2E and a R 2E/2E. Patient C was scored as a L 1/3E and a R 0/3E and Patient D was scored as a L 2E/3+E and a R 2E/3+E.
The patients were subsequently treated with HYLENEX. […] The injections were performed using a 0.5 ml syringe having a 31-gauge needle inserted parallel to the globe, angling away from the globe, to avoid injury to the globe. Specifically, three injections were made into the medial eyelid fat pad, two into the central eyelid fat pad, and three into the lateral eyelid fat pad at a depth of about 6 mm, 8 mm, and 6 mm, respectively. Additionally Patients B and C received 3 to 5 injections in the peri-orbital soft tissues (e.g., the malar region) at a depth of between about 5 to about 10 mm.
After treatment, Patient C was followed for 1 month, Patient D was followed for 2 months, and Patients A and B were followed for 3 months.
After treatment, the patient's eyes were scored on the PEFAS scale. Patient A's eyes were scored on the PEFAS scale as a L 0/0 (left eye; upper eyelid over lower eyelid) and a R 0/0E (right eye; upper eyelid over lower eyelid). Patient B was scored as a L 2E/1E and a R 2E/1. Patient C was scored as a L 1E/1E and a R 0/1 and Patient D was scored as a L 2E/0E and a R 2E/0.
Each patient was given an initial Subjective Patient Score of 10. The Subjective Patient Score is based on a scale of 1 to 10 with 10 being the subject's observed starting amount of peri-orbital puffiness and 0 being no puffiness. Each of the patients scored their puffiness between as a 3 or 4 at 2 weeks, 3 months, and 6 months after their initial treatment.

[6] = test system: patients with lower eyelid puffiness; experiment: Treatment of lower eyelid puffiness with hyaluronidase and collagenase, visual assessment (Example 7); type: in vivo, human; settings: one patient per composition; 100 U to each of five sites in the lower eyelid fat pads; assessed 2 weeks to 1 year after administration
Experimental: Patient A (a person), Patent B (a person), and Patent C (a person) presented with lower eyelid puffiness.
Briefly, Patient A was administered a composition comprising Hylenex by injections of 100 U to each of five sites in the lower eyelid fat pads, Patient B was administered a composition comprising a collagenase by injections of 100 U to each of five sites in the lower eyelid fat pads, and Patient C was administered a composition comprising Hylenex and a collagenase by injections of 100 U to each of five sites in the lower eyelid fat pads. The injections were performed using a 0.5 ml syringe having a 32-gauge needle.
Each patient's lower eyelid puffiness was visually assessed 2 weeks, 1 month, 2 months, 4 months, 6 months, and 1 year after administration of the compositions.

[7] = test system: patients with jowls; experiment: Treatment of jowls, severity grade (Example 10); type: in vivo, human; settings: Patients A, B and C, injected at seven points
Experimental: Patients with jowls (Patient A, B, and C) were treated with Hylenex and the change in severity of their jowls was measured after treatment. Briefly, the severity of jowls in Patients A-C was assessed on a scale of severe, moderate or mild. Patient A and B presented with severe jowls while Patient C presented with mild jowls.
Next, Hylenex was injected at seven different points into an area of skin on each patients with jowls. The injections were performed using a 0.5 ml syringe having a 32-gauge needle. All patients were followed post injection, at one day, one week, one, three, and six months.

[8] = test system: patient with peri-orbital puffiness due to edema; experiment: Treatment of peri-orbital puffiness due to peri-orbital edema using a hyaluronidase (Example 2); type: in vivo, human; settings: four injections, 10 units in each fat pad
Experimental: A patient with peri-orbital puffiness due to edema (edema not due to a hyaluronic acid filler) of the peri-orbital soft tissues or edema of the eyelid fat pads was treated with a composition comprising a hyaluronidase (e.g., Hylenex). Briefly, four injections were administered in the peri-orbital soft tissues and edematous orbital fat pads using a dosage of 10 units injected in each fat pad (in the case of edema of the fat pads). The injections were performed using a 0.5 ml syringe having a 32-gauge needle inserted parallel to the globe, angling away from the globe, to avoid injury to the globe.
An improvement in the extent of peri-orbital puffiness due to peri-orbital edema was observed within the first 15-60 minutes after the injections. […] Although there was recurrence of some of the edema, there was an improvement up to 3 months.

Compound | adverse effects ([1]; one patient followed for 6 months, 25 mg/mL, four injections) | duration of overall reduction in peri-orbital puffiness due to peri-orbital edema compared to pre-treatment ([1]; one patient followed for 6 months, 25 mg/mL, four injections, recurrence of some of the edema) | time after the injections within which an improvement in the extent of peri-orbital puffiness due to peri-orbital edema was observed ([1]; one patient, four injections of a composition comprising 25 mg/mL) | myelination of neurons by microscopy [2] | overall severity score of scleroderma post-treatment (severe, moderate, mild, none) [3] | severity of inflammation (scale 0-4) after treatment ([4]; Patient A, 4 prior to treatment) | severity of inflammation (scale 0-4) after treatment ([4]; Patient B, 3 prior to treatment) | severity of inflammation (scale 0-4) after treatment ([4]; Patient C, 3 prior to treatment) | PEFAS score after treatment (upper eyelid over lower eyelid) ([5]; Patient A, left eye, L 0/3E before treatment) | PEFAS score after treatment (upper eyelid over lower eyelid) ([5]; Patient C, right eye, R 0/3E before treatment) | adverse effects ([5]; Patients A-D followed for up to 6 months, 30U per fat pad) | time over which a reduction in peri-orbital puffiness is still exhibited ([5]; Patients A-D, 30U per fat pad) | time after the injections within which an improvement in the extent of peri-orbital puffiness was exhibited ([5]; each of Patients A-D, 30U per peri-orbital fat pad exhibiting edema) | peri-orbital (eye) puffiness compared to pre-treatment ([5]; each of Patients A-D, followed 1 month (C), 2 months (D), 3 months (A and B), 30U per fat pad) | lower eyelid puffiness, visual assessment [6] | duration of effect on jowls [7] | severity of jowls (severe, moderate or mild) after treatment ([7]; one day after treatment, A and B severe, C mild before) | adverse effects ([8]; one patient followed for 6 months) | duration of overall reduction in peri-orbital puffiness due to peri-orbital edema compared to pre-treatment ([8]; one patient followed for 6 months, recurrence of some of the edema) | time after the injections within which an improvement in the extent of peri-orbital puffiness due to peri-orbital edema was observed ([8]; one patient)
Cc1cc(=O)oc2cc(O)ccc12 [4-methylumbelliferone] | without any adverse effects | up to 3 months | 15 to 60 min |  |  |  |  |  |  |  |  |  |  |  |  |  |  |  |  | 
Hylenex: recombinant preparation of human hyaluronidase; soluble fragment of human hyaluronidase (PH20), 447 amino acids, SEQ ID NO: 1 |  |  |  | remyelinated neurons | mild | 2 | 2 | 2 | 0/0 | 0/1 | without any adverse effects | up to 6 months | 15 to 60 min | marked reduction | reduction in lower eyelid puffiness | more than six months | mild jowls | without any adverse effects | up to 3 months | 15 to 60 min
collagenase |  |  |  |  |  |  |  |  |  |  |  |  |  |  | did not exhibit any reduction in lower eyelid puffiness |  |  |  |  | 
